Reference: US20240300932A1, “N-PHENYLIMINE DERIVATIVE AND PREPARATION METHOD AND USE THEREOF” (Guizhou University, priority 2023, published 2024)

Key:
Experiment in all cases: Post-emergence herbicidal activity test (stem and leaf spray, pot culture)
Assay type in all cases: in vivo
Details in all cases: 3 weeks after spraying
[1] = test system: Portulaca oleracea
In short: (§1)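 Activity is given as a 0–5 grade of fresh weight growth control, scored three weeks after a single stem-and-leaf spray. Weeds in farmland loam were treated at the 2- to 3-leaf stage at 10, 5 and 2.5 g/mu, with methyl oleate added as synergist.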

[2] = test system: Echinochloa crusgalli
In short: as §1

[3] = test system: Abutilon theophrasti
In short: as §1

[4] = test system: Setaria viridis
In short: as §1

[5] = test system: Amaranthus retroflexus
In short: as §1

[6] = test system: Trifoliumre pensL.
In short: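 Rates of 10, 5 and 2.5 g/mu were applied in a single spray-tower treatment to 2–3-leaf plants, thinned to 10 per pot. Formulation: acetone solution, Tween 80, 1.5 L/ha methyl oleate synergist. Weed response assessed after 3 further greenhouse weeks; mean of three experiments.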

Compound: O=C1C2=C(CCCC2)C(=O)N1c1cc(OCc2nnc(-c3ccc(F)cc3)o2)c(Cl)cc1F [Compound B14]
- Post-emergence herbicidal activity, P. oleracea (grade) ([1]; dosage 2.5 g/mu): 4 (Grade 4: the growth control rate is greater than or equal to 60% and less than 85%)
- Post-emergence herbicidal activity, P. oleracea (grade) ([1]; dosage 5 g/mu): 5 (Grade 5: the growth control rate is greater than or equal to 85%)
- Post-emergence herbicidal activity, P. oleracea (grade) ([1]; dosage 10 g/mu): 5 (Grade 5: the growth control rate is greater than or equal to 85%)
- Post-emergence herbicidal activity, E. crusgalli (grade) ([2]; dosage 2.5 g/mu): 1 (Grade 1: the growth control rate is greater than or equal to 5% and less than 20%)
- Post-emergence herbicidal activity, E. crusgalli (grade) ([2]; dosage 5 g/mu): 2 (Grade 2: the growth control rate is greater than or equal to 20% and less than 40%)
- Post-emergence herbicidal activity, E. crusgalli (grade) ([2]; dosage 10 g/mu): 3 (Grade 3: the growth control rate is greater than or equal to 40% and less than 60%)
- Post-emergence herbicidal activity, A. theophrasti (grade) ([3]; dosage 2.5 g/mu): 4 (Grade 4: the growth control rate is greater than or equal to 60% and less than 85%)
- Post-emergence herbicidal activity, A. theophrasti (grade) ([3]; dosage 5 g/mu): 5 (Grade 5: the growth control rate is greater than or equal to 85%)
- Post-emergence herbicidal activity, A. theophrasti (grade) ([3]; dosage 10 g/mu): 5 (Grade 5: the growth control rate is greater than or equal to 85%)
- Post-emergence herbicidal activity, S. viridis (grade) ([4]; dosage 2.5 g/mu): 2 (Grade 2: the growth control rate is greater than or equal to 20% and less than 40%)
- Post-emergence herbicidal activity, S. viridis (grade) ([4]; dosage 5 g/mu): 3 (Grade 3: the growth control rate is greater than or equal to 40% and less than 60%)
- Post-emergence herbicidal activity, S. viridis (grade) ([4]; dosage 10 g/mu): 4 (Grade 4: the growth control rate is greater than or equal to 60% and less than 85%)
- Post-emergence herbicidal activity, A. retroflexus (grade) ([5]; dosage 2.5 g/mu): 5 (Grade 5: the growth control rate is greater than or equal to 85%)
- Post-emergence herbicidal activity, A. retroflexus (grade) ([5]; dosage 5 g/mu): 5 (Grade 5: the growth control rate is greater than or equal to 85%)
- Post-emergence herbicidal activity, A. retroflexus (grade) ([5]; dosage 10 g/mu): 5 (Grade 5: the growth control rate is greater than or equal to 85%)
- Post-emergence herbicidal activity, Trifoliumre pensL. (grade) ([6]; dosage 2.5 g/mu): 5 (Grade 5: the growth control rate is greater than or equal to 85%)
- Post-emergence herbicidal activity, Trifoliumre pensL. (grade) ([6]; dosage 5 g/mu): 5 (Grade 5: the growth control rate is greater than or equal to 85%)
- Post-emergence herbicidal activity, Trifoliumre pensL. (grade) ([6]; dosage 10 g/mu): 5 (Grade 5: the growth control rate is greater than or equal to 85%)

Compound: O=C1C2=C(CCCC2)C(=O)N1c1cc(OCc2nnc(-c3ccc(Cl)cc3)o2)c(Cl)cc1F [Compound B15]
- Post-emergence herbicidal activity, P. oleracea (grade) ([1]; dosage 2.5 g/mu): 5 (Grade 5: the growth control rate is greater than or equal to 85%)
- Post-emergence herbicidal activity, P. oleracea (grade) ([1]; dosage 5 g/mu): 5 (Grade 5: the growth control rate is greater than or equal to 85%)
- Post-emergence herbicidal activity, P. oleracea (grade) ([1]; dosage 10 g/mu): 5 (Grade 5: the growth control rate is greater than or equal to 85%)
- Post-emergence herbicidal activity, E. crusgalli (grade) ([2]; dosage 2.5 g/mu): 1 (Grade 1: the growth control rate is greater than or equal to 5% and less than 20%)
- Post-emergence herbicidal activity, E. crusgalli (grade) ([2]; dosage 5 g/mu): 2 (Grade 2: the growth control rate is greater than or equal to 20% and less than 40%)
- Post-emergence herbicidal activity, E. crusgalli (grade) ([2]; dosage 10 g/mu): 3 (Grade 3: the growth control rate is greater than or equal to 40% and less than 60%)
- Post-emergence herbicidal activity, A. theophrasti (grade) ([3]; dosage 2.5 g/mu): 5 (Grade 5: the growth control rate is greater than or equal to 85%)
- Post-emergence herbicidal activity, A. theophrasti (grade) ([3]; dosage 5 g/mu): 5 (Grade 5: the growth control rate is greater than or equal to 85%)
- Post-emergence herbicidal activity, A. theophrasti (grade) ([3]; dosage 10 g/mu): 5 (Grade 5: the growth control rate is greater than or equal to 85%)
- Post-emergence herbicidal activity, S. viridis (grade) ([4]; dosage 2.5 g/mu): 2 (Grade 2: the growth control rate is greater than or equal to 20% and less than 40%)
- Post-emergence herbicidal activity, S. viridis (grade) ([4]; dosage 5 g/mu): 3 (Grade 3: the growth control rate is greater than or equal to 40% and less than 60%)
- Post-emergence herbicidal activity, S. viridis (grade) ([4]; dosage 10 g/mu): 4 (Grade 4: the growth control rate is greater than or equal to 60% and less than 85%)
- Post-emergence herbicidal activity, A. retroflexus (grade) ([5]; dosage 2.5 g/mu): 5 (Grade 5: the growth control rate is greater than or equal to 85%)
- Post-emergence herbicidal activity, A. retroflexus (grade) ([5]; dosage 5 g/mu): 5 (Grade 5: the growth control rate is greater than or equal to 85%)
- Post-emergence herbicidal activity, A. retroflexus (grade) ([5]; dosage 10 g/mu): 5 (Grade 5: the growth control rate is greater than or equal to 85%)
- Post-emergence herbicidal activity, Trifoliumre pensL. (grade) ([6]; dosage 2.5 g/mu): 5 (Grade 5: the growth control rate is greater than or equal to 85%)
- Post-emergence herbicidal activity, Trifoliumre pensL. (grade) ([6]; dosage 5 g/mu): 5 (Grade 5: the growth control rate is greater than or equal to 85%)
- Post-emergence herbicidal activity, Trifoliumre pensL. (grade) ([6]; dosage 10 g/mu): 5 (Grade 5: the growth control rate is greater than or equal to 85%)

Compound: O=C1C2=C(CCCC2)C(=O)N1c1cc(OCc2nnc(-c3ccc(Br)cc3)o2)c(Cl)cc1F [Compound B16]
- Post-emergence herbicidal activity, P. oleracea (grade) ([1]; dosage 2.5 g/mu): 5 (Grade 5: the growth control rate is greater than or equal to 85%)
- Post-emergence herbicidal activity, P. oleracea (grade) ([1]; dosage 5 g/mu): 5 (Grade 5: the growth control rate is greater than or equal to 85%)
- Post-emergence herbicidal activity, P. oleracea (grade) ([1]; dosage 10 g/mu): 5 (Grade 5: the growth control rate is greater than or equal to 85%)
- Post-emergence herbicidal activity, E. crusgalli (grade) ([2]; dosage 2.5 g/mu): 1 (Grade 1: the growth control rate is greater than or equal to 5% and less than 20%)
- Post-emergence herbicidal activity, E. crusgalli (grade) ([2]; dosage 5 g/mu): 2 (Grade 2: the growth control rate is greater than or equal to 20% and less than 40%)
- Post-emergence herbicidal activity, E. crusgalli (grade) ([2]; dosage 10 g/mu): 3 (Grade 3: the growth control rate is greater than or equal to 40% and less than 60%)
- Post-emergence herbicidal activity, A. theophrasti (grade) ([3]; dosage 2.5 g/mu): 5 (Grade 5: the growth control rate is greater than or equal to 85%)
- Post-emergence herbicidal activity, A. theophrasti (grade) ([3]; dosage 5 g/mu): 5 (Grade 5: the growth control rate is greater than or equal to 85%)
- Post-emergence herbicidal activity, A. theophrasti (grade) ([3]; dosage 10 g/mu): 5 (Grade 5: the growth control rate is greater than or equal to 85%)
- Post-emergence herbicidal activity, S. viridis (grade) ([4]; dosage 2.5 g/mu): 2 (Grade 2: the growth control rate is greater than or equal to 20% and less than 40%)
- Post-emergence herbicidal activity, S. viridis (grade) ([4]; dosage 5 g/mu): 3 (Grade 3: the growth control rate is greater than or equal to 40% and less than 60%)
- Post-emergence herbicidal activity, S. viridis (grade) ([4]; dosage 10 g/mu): 4 (Grade 4: the growth control rate is greater than or equal to 60% and less than 85%)
- Post-emergence herbicidal activity, A. retroflexus (grade) ([5]; dosage 2.5 g/mu): 5 (Grade 5: the growth control rate is greater than or equal to 85%)
- Post-emergence herbicidal activity, A. retroflexus (grade) ([5]; dosage 5 g/mu): 5 (Grade 5: the growth control rate is greater than or equal to 85%)
- Post-emergence herbicidal activity, A. retroflexus (grade) ([5]; dosage 10 g/mu): 5 (Grade 5: the growth control rate is greater than or equal to 85%)
- Post-emergence herbicidal activity, Trifoliumre pensL. (grade) ([6]; dosage 2.5 g/mu): 5 (Grade 5: the growth control rate is greater than or equal to 85%)
- Post-emergence herbicidal activity, Trifoliumre pensL. (grade) ([6]; dosage 5 g/mu): 5 (Grade 5: the growth control rate is greater than or equal to 85%)
- Post-emergence herbicidal activity, Trifoliumre pensL. (grade) ([6]; dosage 10 g/mu): 5 (Grade 5: the growth control rate is greater than or equal to 85%)
